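Five compound concentrations were applied to cells in 96-well plates for 48 hours; endpoints were derived by simple linear interpolation of the resulting dose-response curve. GI50 is the concentration that inhibits growth by half. TGI: total growth inhibition.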
Assays:
Experiment in all cases: DTP human tumour cell line panel, 48 h
HCC-2998 colon = system: HCC-2998 colon
786-0 renal = system: 786-0 renal
MOLT-4 leukemia = system: MOLT-4 leukemia
SF-295 CNS = system: SF-295 CNS
UACC-62 melanoma = system: UACC-62 melanoma
CCRF-CEM leukemia = system: CCRF-CEM leukemia
SK-MEL-5 melanoma = system: SK-MEL-5 melanoma
SNB-75 CNS = system: SNB-75 CNS
SF-268 CNS = system: SF-268 CNS
SK-MEL-2 melanoma = system: SK-MEL-2 melanoma
DMS 273 small cell lung = system: DMS 273 small cell lung
COLO 205 colon = system: COLO 205 colon
UO-31 renal = system: UO-31 renal
SR leukemia = system: SR leukemia
SK-OV-3 ovarian = system: SK-OV-3 ovarian
A549 NSCLC = system: A549 NSCLC
SF-539 CNS = system: SF-539 CNS
HCT-116 colon = system: HCT-116 colon
SNB-78 CNS = system: SNB-78 CNS
EKVX NSCLC = system: EKVX NSCLC
SK-MEL-28 melanoma = system: SK-MEL-28 melanoma
RPMI-8226 leukemia = system: RPMI-8226 leukemia
SN12C renal = system: SN12C renal
HOP-92 NSCLC = system: HOP-92 NSCLC
U251 CNS = system: U251 CNS
IGROV1 ovarian = system: IGROV1 ovarian
HCT-15 colon = system: HCT-15 colon
DMS 114 small cell lung = system: DMS 114 small cell lung
M14 melanoma = system: M14 melanoma
LOX IMVI melanoma = system: LOX IMVI melanoma
HT29 colon = system: HT29 colon
NCI-H460 lung = system: NCI-H460 lung
OVCAR-4 ovarian = system: OVCAR-4 ovarian
A498 renal = system: A498 renal
HL-60(TB) leukemia = system: HL-60(TB) leukemia
SW-620 colon = system: SW-620 colon
UACC-257 melanoma = system: UACC-257 melanoma
MALME-3M melanoma = system: MALME-3M melanoma
OVCAR-8 ovarian = system: OVCAR-8 ovarian
HOP-62 NSCLC = system: HOP-62 NSCLC
K-562 leukemia = system: K-562 leukemia
NCI-H23 lung = system: NCI-H23 lung
LXFL 529 NSCLC = system: LXFL 529 NSCLC
CAKI-1 renal = system: CAKI-1 renal
DLD-1 colon = system: DLD-1 colon
KM12 colon = system: KM12 colon
OVCAR-3 ovarian = system: OVCAR-3 ovarian
M19-MEL melanoma = system: M19-MEL melanoma
ACHN renal = system: ACHN renal
NCI-H522 lung = system: NCI-H522 lung
RXF 393 renal = system: RXF 393 renal
HS 578T breast = system: HS 578T breast
DU-145 prostate = system: DU-145 prostate
MDA-N = system: MDA-N
T-47D breast = system: T-47D breast
MCF7 breast = system: MCF7 breast
BT-549 breast = system: BT-549 breast
OVCAR-5 ovarian = system: OVCAR-5 ovarian
NCI/ADR-RES ovarian = system: NCI/ADR-RES ovarian
PC-3 prostate = system: PC-3 prostate
MDA-MB-231 breast = system: MDA-MB-231 breast
SNB-19 CNS = system: SNB-19 CNS
MDA-MB-435 = system: MDA-MB-435
NCI-H226 lung = system: NCI-H226 lung
TK-10 renal = system: TK-10 renal

Structure (SMILES): CCOC(=O)/C=C1\Nc2ccccc2C(c2ccccc2)=NC1OC(C)=O (centres undefined)
- TGI (HCC-2998 colon): > 100 µM
- TGI (786-0 renal): > 100 µM
- TGI (MOLT-4 leukemia): > 100 µM
- TGI (SF-295 CNS): > 100 µM
- TGI (UACC-62 melanoma): > 100 µM
- TGI (CCRF-CEM leukemia): > 100 µM
- TGI (SK-MEL-5 melanoma): > 100 µM
- TGI (SNB-75 CNS): > 100 µM
- TGI (SF-268 CNS): > 100 µM
- TGI (SK-MEL-2 melanoma): > 100 µM
- TGI (DMS 273 small cell lung): > 100 µM
- TGI (COLO 205 colon): > 100 µM
- TGI (UO-31 renal): > 100 µM
- TGI (SR leukemia): > 100 µM
- TGI (SK-OV-3 ovarian): > 100 µM
- TGI (A549 NSCLC): > 100 µM
- TGI (SF-539 CNS): > 100 µM
- TGI (HCT-116 colon): > 100 µM
- TGI (SNB-78 CNS): > 100 µM
- TGI (EKVX NSCLC): > 100 µM
- TGI (SK-MEL-28 melanoma): > 100 µM
- TGI (RPMI-8226 leukemia): > 100 µM
- TGI (SN12C renal): > 100 µM
- TGI (HOP-92 NSCLC): > 100 µM
- TGI (U251 CNS): > 100 µM
- TGI (IGROV1 ovarian): > 100 µM
- TGI (HCT-15 colon): > 100 µM
- TGI (DMS 114 small cell lung): > 100 µM
- TGI (M14 melanoma): > 100 µM
- TGI (LOX IMVI melanoma): > 100 µM
- TGI (HT29 colon): > 100 µM
- TGI (NCI-H460 lung): > 100 µM
- TGI (OVCAR-4 ovarian): > 100 µM
- TGI (A498 renal): > 100 µM
- TGI (HL-60(TB) leukemia): > 100 µM
- TGI (SW-620 colon): > 100 µM
- TGI (UACC-257 melanoma): > 100 µM
- TGI (MALME-3M melanoma): > 100 µM
- TGI (OVCAR-8 ovarian): > 100 µM
- TGI (HOP-62 NSCLC): > 100 µM
- TGI (K-562 leukemia): > 100 µM
- TGI (NCI-H23 lung): > 100 µM
- TGI (LXFL 529 NSCLC): > 100 µM
- TGI (CAKI-1 renal): > 100 µM
- TGI (DLD-1 colon): > 100 µM
- TGI (KM12 colon): > 100 µM
- TGI (OVCAR-3 ovarian): > 100 µM
- TGI (M19-MEL melanoma): > 100 µM
- TGI (ACHN renal): > 100 µM
- TGI (NCI-H522 lung): > 100 µM

Structure (SMILES): COc1cn2c(cc1=O)COc1ccc(-c3ccccc3)cc1-2
- TGI (HCC-2998 colon): > 100 µM
- TGI (786-0 renal): > 100 µM
- TGI (MOLT-4 leukemia): > 100 µM
- TGI (RXF 393 renal): > 100 µM
- GI50 (HS 578T breast): 43.6 µM
- TGI (HS 578T breast): > 100 µM
- TGI (SF-295 CNS): > 100 µM
- TGI (UACC-62 melanoma): > 100 µM
- GI50 (CCRF-CEM leukemia): 40.2 µM
- TGI (CCRF-CEM leukemia): > 100 µM
- TGI (SK-MEL-5 melanoma): > 76 µM
- TGI (SNB-75 CNS): > 100 µM
- TGI (SF-268 CNS): > 100 µM
- TGI (DU-145 prostate): > 100 µM
- TGI (MDA-N): > 100 µM
- TGI (SK-MEL-2 melanoma): > 100 µM
- TGI (COLO 205 colon): > 100 µM
- TGI (UO-31 renal): > 100 µM
- TGI (SR leukemia): > 100 µM
- TGI (T-47D breast): > 83.3 µM
- TGI (SK-OV-3 ovarian): > 100 µM
- TGI (A549 NSCLC): 99.5 µM
- GI50 (SF-539 CNS): 43.6 µM
- TGI (SF-539 CNS): > 100 µM
- TGI (HCT-116 colon): > 100 µM
- TGI (MCF7 breast): > 100 µM
- TGI (EKVX NSCLC): > 100 µM
- TGI (SK-MEL-28 melanoma): > 100 µM
- TGI (RPMI-8226 leukemia): > 100 µM
- TGI (BT-549 breast): > 82.9 µM
- TGI (SN12C renal): > 100 µM
- TGI (HOP-92 NSCLC): > 100 µM
- TGI (OVCAR-5 ovarian): > 100 µM
- TGI (U251 CNS): > 100 µM
- TGI (IGROV1 ovarian): > 100 µM
- TGI (HCT-15 colon): > 100 µM
- TGI (M14 melanoma): > 100 µM
- TGI (LOX IMVI melanoma): > 85.5 µM
- TGI (NCI/ADR-RES ovarian): > 100 µM
- TGI (PC-3 prostate): > 100 µM
- TGI (HT29 colon): > 100 µM
- TGI (NCI-H460 lung): > 100 µM
- TGI (OVCAR-4 ovarian): > 100 µM
- GI50 (A498 renal): 33 µM
- TGI (A498 renal): > 100 µM
- TGI (HL-60(TB) leukemia): > 100 µM
- TGI (SW-620 colon): > 100 µM
- GI50 (MDA-MB-231 breast): > 100 µM
- TGI (MDA-MB-231 breast): > 100 µM
- TGI (UACC-257 melanoma): > 87.1 µM
- TGI (MALME-3M melanoma): > 84.1 µM
- TGI (OVCAR-8 ovarian): > 100 µM
- TGI (HOP-62 NSCLC): > 100 µM
- TGI (SNB-19 CNS): > 100 µM
- TGI (K-562 leukemia): > 100 µM
- TGI (NCI-H23 lung): > 100 µM
- TGI (MDA-MB-435): > 100 µM
- TGI (NCI-H226 lung): > 100 µM
- TGI (TK-10 renal): > 79.8 µM
- TGI (CAKI-1 renal): > 100 µM
- TGI (KM12 colon): > 100 µM
- TGI (OVCAR-3 ovarian): 98.8 µM
- TGI (ACHN renal): > 100 µM
- TGI (NCI-H522 lung): > 100 µM

Reference: PubChem BioAssay (NCI)
